{"source": "ChEMBL document CHEMBL1201862", "about": "“PubChem BioAssay data set” (2004)", "key": {"Cytochrome P450 2D6": {"target": "Cytochrome P450 2D6 (Homo sapiens, UniProt P10635)", "sequence (P10635 whole entry)": "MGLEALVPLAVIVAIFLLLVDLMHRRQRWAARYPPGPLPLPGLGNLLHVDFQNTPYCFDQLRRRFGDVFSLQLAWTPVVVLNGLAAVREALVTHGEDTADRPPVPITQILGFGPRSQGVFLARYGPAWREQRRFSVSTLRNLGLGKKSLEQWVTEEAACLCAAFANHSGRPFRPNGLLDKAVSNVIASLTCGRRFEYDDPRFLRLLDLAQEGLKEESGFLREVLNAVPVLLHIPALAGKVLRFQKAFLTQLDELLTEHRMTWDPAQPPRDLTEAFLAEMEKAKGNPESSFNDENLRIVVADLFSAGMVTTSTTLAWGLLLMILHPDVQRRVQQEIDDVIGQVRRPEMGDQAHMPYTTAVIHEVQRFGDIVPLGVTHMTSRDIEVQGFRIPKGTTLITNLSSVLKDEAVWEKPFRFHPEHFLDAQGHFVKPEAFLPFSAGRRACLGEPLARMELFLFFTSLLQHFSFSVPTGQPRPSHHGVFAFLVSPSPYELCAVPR", "assay": "qHTS Assay for Inhibitors and Substrates of Cytochrome P450 2D6. [Related pubchem assays: 410 ]", "format": "ADME", "details": "read-out: Potency"}, "Bcl-2-related protein A1 [1]": {"target": "T1, Bcl-2-related protein A1 (Mus musculus, UniProt Q07440)", "T1 sequence (Q07440 whole entry)": "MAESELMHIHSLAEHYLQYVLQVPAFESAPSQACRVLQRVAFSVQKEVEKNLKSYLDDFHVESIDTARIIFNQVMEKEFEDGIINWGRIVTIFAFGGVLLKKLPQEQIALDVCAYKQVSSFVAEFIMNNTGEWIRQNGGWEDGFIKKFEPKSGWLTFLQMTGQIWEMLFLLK", "assay": "small-molecule antagonists of Bfl-1/BH3 interaction – biochemical, TR-FRET, mouse Bfl-1, confirmation (AID 621);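 note: TR-FRET binding of GST-Bfl-1 to FITC-labelled Bid peptide via terbium antibody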"}, "Bcl-2-related protein A1 [2]": {"target": "T1, Bcl-2-related protein A1", "assay": "Bfl-1 binding inhibitors, SAR follow-up, biochemical, fluorescence polarization (AID 1070)"}, "[3]": {"target": "Glyceraldehyde-3-phosphate dehydrogenase (Homo sapiens, UniProt P04406)", "sequence (P04406 whole entry)": "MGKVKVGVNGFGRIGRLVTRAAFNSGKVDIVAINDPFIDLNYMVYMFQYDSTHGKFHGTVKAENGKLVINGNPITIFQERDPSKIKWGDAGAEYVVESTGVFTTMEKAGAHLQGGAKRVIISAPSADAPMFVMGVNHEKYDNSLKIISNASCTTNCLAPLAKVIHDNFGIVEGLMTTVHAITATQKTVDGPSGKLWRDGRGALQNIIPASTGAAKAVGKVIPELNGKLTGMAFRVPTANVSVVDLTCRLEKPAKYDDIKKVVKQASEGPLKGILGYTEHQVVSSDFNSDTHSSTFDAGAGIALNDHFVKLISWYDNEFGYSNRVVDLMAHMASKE"}, "Mucolipin-3": {"target": "T2, Mucolipin-3 (Homo sapiens, UniProt Q8TDD5)", "T2 sequence (Q8TDD5 whole entry)": "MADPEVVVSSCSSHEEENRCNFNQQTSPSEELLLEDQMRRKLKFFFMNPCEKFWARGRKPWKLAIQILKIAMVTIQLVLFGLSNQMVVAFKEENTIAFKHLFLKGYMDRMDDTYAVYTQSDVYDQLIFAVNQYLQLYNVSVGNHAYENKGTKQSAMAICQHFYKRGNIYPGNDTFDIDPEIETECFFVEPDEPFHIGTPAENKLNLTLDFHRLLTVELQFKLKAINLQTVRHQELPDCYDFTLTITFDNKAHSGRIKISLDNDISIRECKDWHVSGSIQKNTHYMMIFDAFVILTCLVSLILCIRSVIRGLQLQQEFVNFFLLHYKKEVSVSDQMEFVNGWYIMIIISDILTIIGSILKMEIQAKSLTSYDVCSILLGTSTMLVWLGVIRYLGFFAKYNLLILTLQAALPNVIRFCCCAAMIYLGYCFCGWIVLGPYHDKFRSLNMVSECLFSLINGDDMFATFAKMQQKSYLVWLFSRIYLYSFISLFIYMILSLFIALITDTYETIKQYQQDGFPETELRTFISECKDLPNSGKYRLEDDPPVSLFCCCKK", "assay": "Dose response cell-based high-throughput screening assay for agonists of the transient receptor potential channel ML3 (TRPML3). [Related pubchem assays: 1526, 1424, 1448 ]", "format": "functional"}, "Ion channel NompC": {"target": "Ion channel NompC (Danio rerio, UniProt Q7T1G6)", "sequence (Q7T1G6 whole entry)": "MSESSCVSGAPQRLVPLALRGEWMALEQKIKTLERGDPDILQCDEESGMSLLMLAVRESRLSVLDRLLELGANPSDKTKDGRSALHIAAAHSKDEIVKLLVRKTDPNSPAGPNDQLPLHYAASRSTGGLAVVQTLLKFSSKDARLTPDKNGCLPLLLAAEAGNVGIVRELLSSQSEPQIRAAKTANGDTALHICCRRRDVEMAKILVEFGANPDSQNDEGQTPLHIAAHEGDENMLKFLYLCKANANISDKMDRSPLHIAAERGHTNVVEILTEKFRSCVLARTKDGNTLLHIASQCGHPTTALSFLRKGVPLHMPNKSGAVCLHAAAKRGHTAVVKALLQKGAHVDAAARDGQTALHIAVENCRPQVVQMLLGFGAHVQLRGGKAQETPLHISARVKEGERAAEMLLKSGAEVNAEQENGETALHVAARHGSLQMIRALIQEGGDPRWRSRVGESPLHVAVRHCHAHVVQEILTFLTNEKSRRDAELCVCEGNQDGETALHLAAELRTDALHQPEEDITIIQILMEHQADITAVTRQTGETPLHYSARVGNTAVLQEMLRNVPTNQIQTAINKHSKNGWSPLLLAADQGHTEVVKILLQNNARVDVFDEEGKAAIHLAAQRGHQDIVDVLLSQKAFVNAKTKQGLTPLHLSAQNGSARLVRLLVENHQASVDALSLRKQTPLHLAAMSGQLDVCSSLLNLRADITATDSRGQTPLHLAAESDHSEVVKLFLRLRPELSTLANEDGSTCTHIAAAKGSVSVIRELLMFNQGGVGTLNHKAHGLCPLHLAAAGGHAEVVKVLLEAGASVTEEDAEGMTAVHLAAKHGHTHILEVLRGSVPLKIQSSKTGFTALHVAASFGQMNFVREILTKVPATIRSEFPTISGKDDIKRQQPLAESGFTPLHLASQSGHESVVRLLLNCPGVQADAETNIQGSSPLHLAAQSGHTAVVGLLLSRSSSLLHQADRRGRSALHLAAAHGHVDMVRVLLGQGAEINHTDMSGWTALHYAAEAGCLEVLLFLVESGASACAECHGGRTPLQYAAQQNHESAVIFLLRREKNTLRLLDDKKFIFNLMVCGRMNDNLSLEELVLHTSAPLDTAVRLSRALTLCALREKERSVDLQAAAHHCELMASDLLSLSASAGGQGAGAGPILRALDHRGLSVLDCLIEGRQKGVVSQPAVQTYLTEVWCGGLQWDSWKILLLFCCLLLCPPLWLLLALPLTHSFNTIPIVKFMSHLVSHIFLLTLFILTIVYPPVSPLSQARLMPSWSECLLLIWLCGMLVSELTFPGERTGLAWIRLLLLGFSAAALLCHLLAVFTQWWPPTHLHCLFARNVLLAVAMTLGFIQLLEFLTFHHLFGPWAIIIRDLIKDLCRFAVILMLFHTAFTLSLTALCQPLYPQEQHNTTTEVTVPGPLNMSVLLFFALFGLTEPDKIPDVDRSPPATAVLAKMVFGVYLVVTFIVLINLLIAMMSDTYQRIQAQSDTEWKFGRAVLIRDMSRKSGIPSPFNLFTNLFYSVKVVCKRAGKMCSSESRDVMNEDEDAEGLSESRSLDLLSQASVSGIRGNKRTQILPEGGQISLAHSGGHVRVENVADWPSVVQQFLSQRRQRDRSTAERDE", "assay": "Fluorescence counterscreen assay for TRPML3 agonists: dose response cell-based high-throughput screening assay to identify agonists of the transient receptor potential channel N1 (TRPN1). [Related pubchem assays: 1526, 1424, 1448 ]", "format": "functional"}, "[4]": {"assay": "NIH3T3 cell viability loss – ATP luminescence, mouse fibroblasts, counter-screen, dose response (AID 2010);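 note: cells exposed to compound for about 90 hours before reading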", "format": "functional, cell-based"}, "[5]": {"assay": "Trypanosoma cruzi growth suppression in host cells – NIH3T3 host cells, beta-gal luminescence, confirmation (AID 2044);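 note: intracellular parasites grown in NIH/3T3 mouse fibroblasts as host cells; luminescent beta-galactosidase reporter signal from transgenic T. cruzi replicating inside host cells; inhibitors lower the luminescence signal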", "format": "functional, cell-based"}, "[6]": {"target": "T3, Epstein-Barr nuclear antigen 1 (Epstein-Barr virus (strain B95-8) (HHV-4) (Human herpesvirus 4), UniProt P03211)", "T3 sequence (P03211 whole entry)": "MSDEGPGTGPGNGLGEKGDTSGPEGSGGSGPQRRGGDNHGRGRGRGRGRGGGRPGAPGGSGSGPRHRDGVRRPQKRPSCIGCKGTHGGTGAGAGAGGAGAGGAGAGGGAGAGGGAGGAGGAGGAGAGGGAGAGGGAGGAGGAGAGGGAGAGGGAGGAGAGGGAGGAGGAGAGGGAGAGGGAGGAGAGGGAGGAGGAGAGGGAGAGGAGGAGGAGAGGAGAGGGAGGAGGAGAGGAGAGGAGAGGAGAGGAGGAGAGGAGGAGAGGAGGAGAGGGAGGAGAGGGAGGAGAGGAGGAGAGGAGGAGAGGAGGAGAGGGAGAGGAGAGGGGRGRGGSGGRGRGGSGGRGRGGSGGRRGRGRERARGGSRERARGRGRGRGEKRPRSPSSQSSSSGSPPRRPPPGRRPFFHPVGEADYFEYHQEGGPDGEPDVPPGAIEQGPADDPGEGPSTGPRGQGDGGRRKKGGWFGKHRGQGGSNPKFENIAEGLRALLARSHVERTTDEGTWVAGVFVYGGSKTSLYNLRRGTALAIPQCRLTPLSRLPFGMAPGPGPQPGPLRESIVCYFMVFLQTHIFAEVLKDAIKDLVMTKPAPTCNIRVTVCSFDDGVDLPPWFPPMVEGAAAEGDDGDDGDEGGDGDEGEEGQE", "assay": "inhibition of EBV nuclear antigen 1 DNA binding – biochemical, fluorescence polarization, 1536-well, dose response (AID 2381);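 note: fluorescence polarization of a Cy5 DNA probe bound by EBNA-1 protein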", "design": "species or system human gammaherpesvirus 4"}, "[7]": {"target": "T4, Lytic switch protein BZLF1 (Epstein-Barr virus (strain B95-8) (HHV-4) (Human herpesvirus 4), UniProt P03206)", "T4 sequence (P03206 whole entry)": "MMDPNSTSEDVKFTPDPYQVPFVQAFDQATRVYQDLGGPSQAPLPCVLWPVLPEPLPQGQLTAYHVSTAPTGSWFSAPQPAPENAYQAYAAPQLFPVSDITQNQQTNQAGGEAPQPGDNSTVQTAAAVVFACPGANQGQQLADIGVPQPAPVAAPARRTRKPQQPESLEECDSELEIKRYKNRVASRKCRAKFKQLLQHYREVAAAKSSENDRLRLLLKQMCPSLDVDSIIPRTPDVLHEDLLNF", "assay": "inhibition of BZLF1 ZTA DNA binding – biochemical, fluorescence polarization, Epstein-Barr virus, 1536-well, counter-screen for EBNA-1 inhibitor project, dose response (AID 2377);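 note: fluorescence polarization of Cy5-labelled ZRE DNA probe bound by purified Zta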", "design": "species or system human gammaherpesvirus 4"}, "Protein RecA": {"target": "T5, Protein RecA (Mycobacterium tuberculosis, UniProt P9WHJ3)", "T5 sequence (P9WHJ3 whole entry)": "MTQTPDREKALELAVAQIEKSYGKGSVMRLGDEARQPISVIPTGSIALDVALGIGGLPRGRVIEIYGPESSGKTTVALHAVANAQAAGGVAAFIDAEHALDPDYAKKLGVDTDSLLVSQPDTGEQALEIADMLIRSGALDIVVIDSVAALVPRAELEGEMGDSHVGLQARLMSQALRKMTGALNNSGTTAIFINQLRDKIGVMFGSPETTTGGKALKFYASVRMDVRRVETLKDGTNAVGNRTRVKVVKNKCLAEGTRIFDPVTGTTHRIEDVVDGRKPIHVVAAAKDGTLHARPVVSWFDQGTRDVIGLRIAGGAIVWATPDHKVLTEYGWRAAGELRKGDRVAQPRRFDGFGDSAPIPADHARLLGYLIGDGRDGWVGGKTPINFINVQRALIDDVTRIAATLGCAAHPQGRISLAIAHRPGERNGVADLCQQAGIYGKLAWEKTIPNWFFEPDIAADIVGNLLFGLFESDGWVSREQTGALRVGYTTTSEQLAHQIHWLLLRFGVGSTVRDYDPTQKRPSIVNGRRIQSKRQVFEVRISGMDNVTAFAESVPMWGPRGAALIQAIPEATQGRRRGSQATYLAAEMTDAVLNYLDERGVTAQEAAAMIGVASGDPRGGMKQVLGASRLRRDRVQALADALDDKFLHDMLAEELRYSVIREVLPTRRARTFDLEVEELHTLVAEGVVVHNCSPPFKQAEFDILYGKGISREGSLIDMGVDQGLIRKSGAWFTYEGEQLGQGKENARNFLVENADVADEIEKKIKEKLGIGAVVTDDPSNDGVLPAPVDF", "assay": "Fluorescence Cell-Free Homogeneous Dose Retest to Identify Inhibitors of RecA-Intein Splicing Activity. [Related pubchem assays (depositor defined):AID2097, AID2223, AID489010, AID492950]", "format": "functional"}, "Genome polyprotein": {"target": "Genome polyprotein (dengue virus type 2, UniProt P29990)", "sequence (P29990 2492-3391 limits assumed)": "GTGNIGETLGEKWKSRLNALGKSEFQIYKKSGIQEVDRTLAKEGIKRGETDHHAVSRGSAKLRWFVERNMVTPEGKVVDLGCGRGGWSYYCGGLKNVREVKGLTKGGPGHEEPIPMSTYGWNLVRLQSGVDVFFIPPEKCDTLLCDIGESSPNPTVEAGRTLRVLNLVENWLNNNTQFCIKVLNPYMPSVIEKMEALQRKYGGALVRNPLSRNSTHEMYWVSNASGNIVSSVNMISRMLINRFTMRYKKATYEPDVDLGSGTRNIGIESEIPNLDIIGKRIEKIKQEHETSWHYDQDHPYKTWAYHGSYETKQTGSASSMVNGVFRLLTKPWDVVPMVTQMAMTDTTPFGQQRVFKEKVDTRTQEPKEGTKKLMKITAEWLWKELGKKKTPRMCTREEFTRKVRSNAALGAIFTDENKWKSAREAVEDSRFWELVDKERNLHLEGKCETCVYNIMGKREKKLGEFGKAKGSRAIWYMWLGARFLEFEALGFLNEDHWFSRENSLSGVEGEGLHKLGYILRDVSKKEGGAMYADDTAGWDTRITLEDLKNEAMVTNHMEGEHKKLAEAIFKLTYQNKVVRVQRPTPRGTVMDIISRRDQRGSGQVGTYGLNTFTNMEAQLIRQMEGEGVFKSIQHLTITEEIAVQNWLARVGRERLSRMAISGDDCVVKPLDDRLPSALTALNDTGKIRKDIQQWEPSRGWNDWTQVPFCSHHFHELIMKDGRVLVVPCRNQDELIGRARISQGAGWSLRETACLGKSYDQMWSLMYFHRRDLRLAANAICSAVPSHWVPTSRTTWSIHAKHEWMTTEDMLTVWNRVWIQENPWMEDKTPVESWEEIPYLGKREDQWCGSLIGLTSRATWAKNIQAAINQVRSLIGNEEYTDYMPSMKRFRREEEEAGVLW", "assay": "flavivirus cap methylation enzyme inhibition – biochemical, confirmation dose response, primary screen (AID 588689)", "format": "functional"}, "[8]": {"target": "T6, Replicative DNA helicase DnaB (Mycobacterium tuberculosis, UniProt P9WMR3)", "T6 sequence (P9WMR3 whole entry)": "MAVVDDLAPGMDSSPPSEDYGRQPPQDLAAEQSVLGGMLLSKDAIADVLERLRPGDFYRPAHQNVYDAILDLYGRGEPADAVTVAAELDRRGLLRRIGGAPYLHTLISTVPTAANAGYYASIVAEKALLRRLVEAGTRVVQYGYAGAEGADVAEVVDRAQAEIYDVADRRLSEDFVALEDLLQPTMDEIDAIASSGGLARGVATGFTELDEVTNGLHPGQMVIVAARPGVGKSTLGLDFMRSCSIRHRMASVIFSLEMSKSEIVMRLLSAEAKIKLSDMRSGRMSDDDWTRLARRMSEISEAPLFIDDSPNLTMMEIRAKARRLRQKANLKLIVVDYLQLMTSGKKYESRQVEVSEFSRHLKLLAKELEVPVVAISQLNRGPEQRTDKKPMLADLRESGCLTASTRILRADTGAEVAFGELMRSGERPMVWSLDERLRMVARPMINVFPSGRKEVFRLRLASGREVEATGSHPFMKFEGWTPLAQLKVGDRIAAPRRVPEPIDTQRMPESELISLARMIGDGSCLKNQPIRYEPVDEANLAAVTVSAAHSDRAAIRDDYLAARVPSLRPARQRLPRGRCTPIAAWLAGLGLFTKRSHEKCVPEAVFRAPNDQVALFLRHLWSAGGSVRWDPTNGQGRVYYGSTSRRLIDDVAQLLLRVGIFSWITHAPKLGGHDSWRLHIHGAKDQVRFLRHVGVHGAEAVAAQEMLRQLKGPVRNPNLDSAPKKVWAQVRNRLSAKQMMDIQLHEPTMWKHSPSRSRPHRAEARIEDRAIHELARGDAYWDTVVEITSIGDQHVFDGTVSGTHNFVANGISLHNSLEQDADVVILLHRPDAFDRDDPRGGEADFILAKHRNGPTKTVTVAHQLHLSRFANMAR", "assay": "DnaB intein splicing inhibitors, dose response, biochemical, cell-free fluorescence (AID 449749)", "format": "functional"}, "[9]": {"target": "Voltage-gated inwardly rectifying potassium channel KCNH2 (Homo sapiens, UniProt Q12809)", "sequence (Q12809 whole entry)": "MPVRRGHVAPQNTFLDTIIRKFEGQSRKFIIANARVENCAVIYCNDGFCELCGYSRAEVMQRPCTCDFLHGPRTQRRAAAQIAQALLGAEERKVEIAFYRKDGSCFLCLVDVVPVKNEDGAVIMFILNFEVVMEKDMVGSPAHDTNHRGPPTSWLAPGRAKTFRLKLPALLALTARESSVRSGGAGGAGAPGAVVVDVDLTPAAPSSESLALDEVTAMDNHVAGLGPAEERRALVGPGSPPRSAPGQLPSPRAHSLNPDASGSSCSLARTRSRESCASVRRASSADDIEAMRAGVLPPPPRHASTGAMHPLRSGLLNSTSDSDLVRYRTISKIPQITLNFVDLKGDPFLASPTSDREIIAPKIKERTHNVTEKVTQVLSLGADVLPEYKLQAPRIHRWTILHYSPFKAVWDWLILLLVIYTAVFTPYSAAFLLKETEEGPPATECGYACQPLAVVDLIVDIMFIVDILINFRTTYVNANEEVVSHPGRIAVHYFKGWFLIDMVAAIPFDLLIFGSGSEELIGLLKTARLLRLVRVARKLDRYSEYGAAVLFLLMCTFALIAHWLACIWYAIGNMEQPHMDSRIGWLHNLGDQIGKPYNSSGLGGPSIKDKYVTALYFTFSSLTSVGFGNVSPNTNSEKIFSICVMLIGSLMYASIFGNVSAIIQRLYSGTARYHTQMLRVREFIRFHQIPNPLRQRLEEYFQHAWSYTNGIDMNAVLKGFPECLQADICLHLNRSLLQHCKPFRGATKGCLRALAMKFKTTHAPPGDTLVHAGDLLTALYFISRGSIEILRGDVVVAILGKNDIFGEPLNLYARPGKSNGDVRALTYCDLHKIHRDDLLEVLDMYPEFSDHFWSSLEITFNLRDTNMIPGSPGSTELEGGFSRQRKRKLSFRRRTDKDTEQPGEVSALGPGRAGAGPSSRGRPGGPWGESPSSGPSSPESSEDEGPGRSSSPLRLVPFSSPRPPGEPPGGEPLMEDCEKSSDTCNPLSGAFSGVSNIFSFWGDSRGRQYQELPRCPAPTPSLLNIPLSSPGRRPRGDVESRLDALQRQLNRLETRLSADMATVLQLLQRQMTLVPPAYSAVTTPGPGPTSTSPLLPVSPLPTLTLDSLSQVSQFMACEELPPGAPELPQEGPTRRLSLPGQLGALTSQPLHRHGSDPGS", "assay": "concentration-dependent hERG rescue from blockers – cell-based, thallium flux, dose response (AID 2121)", "format": "ADME"}}, "note": "Activity calls are given as the source filed them.", "data": [{"compound": "CCCCCCCCCCCCC/C=C\\[C@H](O)[C@H](N)CO", "values": [{"measurement": "AC50", "setting": "Cytochrome P450 2D6", "value": "12.6 µM (inconclusive)"}]}, {"compound": "O=C1C(Cl)=C(N2CCN(CCO)CC2)C(=O)N1c1ccc(Cl)c(Cl)c1", "values": [{"measurement": "IC50", "setting": "Bcl-2-related protein A1 [1]", "value": "0.59 µM (active)"}, {"measurement": "IC50", "setting": "Bcl-2-related protein A1 [2]", "value": "0.556 µM (active)"}, {"measurement": "IC50", "setting": "[3]", "value": "> 100 µM (not active)"}]}, {"compound": "O=C1CN(S(=O)(=O)c2ccc(F)cc2)CC(=O)N1CCc1ccccc1", "values": [{"measurement": "EC50", "setting": "Mucolipin-3", "value": "6.15 µM (active)"}, {"measurement": "EC50", "setting": "Ion channel NompC", "value": "> 29.9 µM (not active)"}]}, {"compound": "c1ccc2c(C[n+]3csc4ccccc43)cccc2c1", "values": [{"measurement": "EC50", "setting": "[4]", "value": "22.3 µM (active)"}, {"measurement": "EC50", "setting": "Mucolipin-3", "value": "> 29.9 µM (not active)"}, {"measurement": "EC50", "setting": "Ion channel NompC", "value": "> 29.9 µM (not active)"}, {"measurement": "EC50", "setting": "[5]", "value": "0.898 µM (active)"}]}, {"compound": "O=C(Nc1ccc(-c2nc3ccccc3o2)cc1)c1ccc(N2C(=O)C3C4C=CC(C4)C3C2=O)cc1", "note": "(stereo not given)", "values": [{"measurement": "IC50", "setting": "[6]", "value": "5.35 µM (active)"}, {"measurement": "IC50", "setting": "[7]", "value": "> 111 µM (not active)"}]}, {"compound": "O=C1C(Cl)=C(N2CCOCC2)C(=O)N1c1ccccc1Cl", "values": [{"measurement": "IC50", "setting": "Bcl-2-related protein A1 [1]", "value": "5.83 µM (active)"}, {"measurement": "EC50", "setting": "Protein RecA", "value": "2.09 µM (active)"}, {"measurement": "IC50", "setting": "Genome polyprotein", "value": "23.3 µM (active)"}, {"measurement": "IC50", "setting": "Bcl-2-related protein A1 [2]", "value": "> 100 µM (not active)"}, {"measurement": "IC50", "setting": "[3]", "value": "> 10 µM (inconclusive)"}, {"measurement": "AC50", "setting": "[8]", "value": "5.28 µM (active)"}]}, {"compound": "CCOC(=O)Cc1csc(NC(=S)NC(=O)C(C)(C)C)n1", "values": [{"measurement": "EC50", "setting": "[9]", "value": "2.51 µM (active)"}]}, {"compound": "CC1CN(C(=S)NC(=O)c2ccc(Cl)cc2)CC(C)O1", "note": "(stereo not given)", "values": [{"measurement": "EC50", "setting": "[9]", "value": "5.66 µM (active)"}]}]}
